This data set in a line: Test 1: Maximal solubility of an active in a solvent system (visual observation). It counts as physicochemical. From the text: The maximal solubility of an active or a combo of actives in a solvent system is characterized by visual observation. At a given concentration, if the mixture is limpid (with the naked eye), the active ingredient(s) is (are) considered to be soluble in the solvent system at this concentration. However, if a sedimentation of the active ingredient(s) appears, it is not soluble anymore in the solvent system and the maximal solubility is reached. The maximal solubility is thus defined as the maximum amount of active ingredient(s) that can be dissolved in the solvent system, equal to the amount at which the mixture remains limpid (with the naked eye). Each active ingredient or combo is added little by little in different solvent systems. The solutions are magnetically stirred until complete dissolution. Then an additional amount of active ingredient is added and this operation is repeated until the last part of active ingredient added could not be dissolved anymore, taking care to stir the solution after each addition of active ingredient.

This note sets out measurements from patent US20260231929A1, “SOLVENT COMPOSITION FOR AGROCHEMICAL FORMULATIONS” (SPECIALTY OPERATIONS FRANCE, priority 2023, published 2026).

SMILES strings stand for the structures.

For the molecule `CCCCCCCCCC(=O)N(C)C` [Rhodiasolv ® ADMA 10, N,N-dimethyldecanamide], the “maximal solubility of Oxyfluorfen” value (oxyfluorfen (solo) dissolved in the solvent system) is 49.0 g/100 g of solvent. Besides, the “maximal solubility of Picoxystrobin” value (picoxystrobin (solo) dissolved in the solvent system) was 30.0 g/100 g of solvent.
